This test deals with T1, Axl (Homo sapiens, UniProt P30530).
T1 construct: endogenous in cells; host or cells: HeLa cells
T1 sequence (P30530 26-894): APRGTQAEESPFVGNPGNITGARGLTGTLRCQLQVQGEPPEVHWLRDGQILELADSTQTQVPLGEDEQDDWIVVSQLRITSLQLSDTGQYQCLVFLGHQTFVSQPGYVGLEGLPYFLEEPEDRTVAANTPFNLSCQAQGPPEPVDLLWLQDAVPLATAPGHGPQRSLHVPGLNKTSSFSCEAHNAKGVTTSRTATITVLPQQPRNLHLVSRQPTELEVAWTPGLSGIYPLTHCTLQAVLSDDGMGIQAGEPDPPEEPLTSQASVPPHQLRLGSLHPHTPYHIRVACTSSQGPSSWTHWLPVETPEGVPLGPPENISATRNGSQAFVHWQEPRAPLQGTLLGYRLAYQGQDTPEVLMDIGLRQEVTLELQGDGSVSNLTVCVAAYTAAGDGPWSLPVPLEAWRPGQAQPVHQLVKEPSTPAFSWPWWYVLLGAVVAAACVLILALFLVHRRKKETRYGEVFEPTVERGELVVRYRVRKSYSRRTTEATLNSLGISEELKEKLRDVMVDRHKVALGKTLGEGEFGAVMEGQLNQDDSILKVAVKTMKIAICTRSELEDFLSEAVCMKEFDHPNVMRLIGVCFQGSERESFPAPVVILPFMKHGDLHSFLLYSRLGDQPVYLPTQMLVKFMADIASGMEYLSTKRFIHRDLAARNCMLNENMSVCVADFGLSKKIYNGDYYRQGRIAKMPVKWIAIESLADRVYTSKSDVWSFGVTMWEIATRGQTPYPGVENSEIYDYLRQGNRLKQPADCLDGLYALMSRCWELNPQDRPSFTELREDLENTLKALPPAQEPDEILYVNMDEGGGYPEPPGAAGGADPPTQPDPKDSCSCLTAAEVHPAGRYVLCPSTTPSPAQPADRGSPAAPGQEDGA
The experiment in a line: Phospho-Akt in-cell Western assay (inhibition of Axl activity). The test is classed as cell-based. The procedure: The compounds of the invention were tested in the following assay for their ability to inhibit Axl activity.
Phospho-Akt in-Cell Western Assay
• Cell culture plate: 96 well assay plate (Corning 3610), white, clear bottom, tissue-culture treated. • Cells: Hela cells. • Starvation medium: For Axl stimulation: 0.5% FCS (fetal calf serum) in DMEM, plus Axl/Fc (extracellular domain of AXL fused to immunoglobulin Fc region) (R&D, 154-AL) 500 ng/mL. • For EGF (epidermal growth factor) stimulation: 0.5% FCS in DMEM (Dulbecco's modified Eagles medium). • Poly-L-Lysine 0.01% solution (the working solution): 10 μg/ml, dilute In PBS (phosphate buffered saline). • Axl antibody cross-linking: • 1st: Mouse anti-Axl (R&D, MAB154). • 2nd: Biotin-SP-conjugated AffiniPure goat anti-mouse IgG (H+L) (Jackson ImmunoResearch #115-065-003). • Fixing buffer: 4% formaldehyde in PBS. • Wash buffer: 0.1% TritonX-100 in PBS. • Quenching buffer: 3% H2O2, 0.1% Azide in wash buffer, Azide and hydrogen peroxide (H2O2) are added fresh. • Blocking buffer: 5% BSA in TBST (tris buffered saline plus 0.1% Tween 20). • Primary antibody: Rabbit anti-human Phospho-Akt antibody (Cell Signaling 9271): 1×250 diluted in blocking buffer. • Secondary antibody: HRP (horse radish peroxidase)-conjugated Goat anti-Rabbit secondary, stock solution: Jackson ImmunoResearch (Goat anti-Rabbit HRP, #111-035-144) 1:1 diluted in glycerol, store at −20° C. The working solution: 1×2000 dilution of stock in blocking buffer. • Chemiluminescent working solution (Pierce, 37030): SuperSignal ELISA (enzyme linked immunosorbant assay) Pico Chemiluminescent substrate. • Crystal Violet solution: Stock: 2.5% Crystal violet in methanol, filtered and kept at ambient temperature. The working solution: dilute the stock 1:20 with PBS immediately before use. • 10% SDS: working solution: 5% SDS (sodium dodecylsulfate), diluted in PBS Methods: Day 1:
A 96 well TC (tissue culture treated) plate was coated with 10 μg/mL poly-L-Lysine at 37° C. for 30 min, washed twice with PBS, and air-dried for 5 minutes before cells were added. Hela cells were seeded at 10,000 cells/well and the cells were starved in 100 μL starvation medium containing Axl/Fc for 24 hrs.
The cells were pre-treated with test compounds by adding 100 μL of 2× test compound to the starvation medium on the cells. The cells were incubated at 37° C. for 1 hr before stimulation.
The cells were stimulated by Axl-antibody cross-linking as follows: A 5×1st/2nd Axl antibody mixture was made (37.5 μg/mL 1st/100 μg/mL 2nd) in starvation medium and nutated at 4° C. with thorough mixing for 1-2 hours for clustering. The resulting mix was warmed to 37° C. 50 μL of 5× Axl 1st/2nd of antibody cluster was added to the cells and the cells were incubated at 37° C. for 5 min.
After 5 minutes stimulation, the plate was flicked to remove medium and the plate was tapped onto paper towels. Formaldehyde (4.0% in PBS, 100 μL) was added to fix the cells and the cells were incubated at ambient temperature for 20 min without shaking.
The cells were washed with a plate washer buffer to remove the formaldehyde solution. The plate was flicked to removed excess wash buffer and tapped onto paper towels. Quenching buffer (100 μL) was added to each well and the cells were incubated at ambient temperature for 20 minutes without shaking.
The cells were washed with a plate washer buffer to remove the quenching buffer. Blocking buffer (100 μL) was added and the cells were incubated at ambient temperature for at least an hour with gentle shaking.
The cells were washed with a plate washer buffer and diluted primary antibody (50 μL) was added to each well (blocking buffer was added to the negative control wells instead). The plates were incubated overnight at 4° C. with gentle shaking.
The wash buffer was removed, diluted secondary antibody (100 μL) was added, and the cells were incubated at ambient temperature for 1 hour with gentle shaking. […]

Where [1] appears, read: inhibition of Axl activity, Table 1.
The mark [2] stands for this setting: Table 2, Hela cells, Axl antibody cross-linking stimulation, phospho-Akt chemiluminescence.
The mark [3] stands for this setting: Table 3, Hela cells, Axl antibody cross-linking stimulation, phospho-Akt chemiluminescence.
[4] abbreviates: Table 5, Hela cells, Axl antibody cross-linking stimulation, phospho-Akt chemiluminescence.
The mark [5] stands for this setting: inhibition of Axl activity, phospho-Akt in-cell Western assay, Table 1.

The text below walks through data of patent US8389557B2, “Triazole derivatives useful as Axl inhibitors” (Rigel Pharmaceuticals, Inc., priority 2005, dated 2013).

The term IC50 denotes the concentration needed to halve the response being measured. A low value points to inhibition by little substance. On to `CC(C)Oc1ccc(C(=O)n2nc(Nc3cccc(OCC(F)(F)F)c3)nc2N)cc1` [compound 139, 5-amino-1-(4-(iso-propoxy)phenyl)carbonyl-3-[3-(2,2,2-trifluoroethoxy)phenylamino]-1H-1,2,4-triazole], for which the IC50 under setting [1] is > 20 µM. With `CC(C)(C)c1ccc(C(=O)n2nc(N)nc2Nc2ccc(N3CCCC3)cc2)cc1` [compound 298, 3-amino-1-(4-(tert-butyl)phenyl)carbonyl-5-[4-(pyrrolidin-1-yl)phenylamino]-1H-1,2,4-triazole], under setting [2], the half-maximal inhibitory concentration (IC50) was > 20 µM. With `CCOc1cccc(C(=O)n2nc(Nc3ccc4c(c3)OCCO4)nc2N)c1` [compound 128, 5-amino-1-(3-(ethoxy)phenyl)carbonyl-3-(1,4-benzodioxan-6-yl)amino-1H-1,2,4-triazole], the IC50 under setting [1] was > 20 µM. With `Nc1nc(Nc2ccc(OCCN3CCOCC3)cc2)nn1C(=O)c1ccc2cc[nH]c2c1` [compound 265, 5-amino-1-(1H-indol-6-yl)carbonyl-3-[4-[2-(morpholin-4-yl)ethoxy]phenylamino]-1H-1,2,4-triazole], the IC50 under setting [3] is < 1 µM. In turn, `Cc1cccc(C(=O)n2nc(Nc3ccc4oc(C(=O)NCCOC5CCCCO5)cc4c3)nc2N)c1` (stereo not drawn) [compound 207, 5-amino-1-(3-methylphenyl)carbonyl-3-[2-[N-[2-(tetrahydropyran-2-yloxy)ethyl]amino]carbonylbenzofuran-5-yl]amino-1H-1,2,4-triazole] yielded an IC50 under setting [4] of 1 to 10 µM. For the compound `COC(=O)COc1ccc(Nc2nc(N)n(C(=O)c3ccc(OC(C)C)cc3)n2)cc1` [compound 157, 5-amino-1-(4-(iso-propoxy)phenyl)carbonyl-3-[4-(methoxycarbonylmethoxy)phenylamino]-1H-1,2,4-triazole], the IC50 under setting [1] lay within 1 to 10 µM.

Turning to `CC(C)(C)Oc1cccc(C(=O)n2nc(N)nc2NC2C3C=CC(C3)C2C(N)=O)c1` (stereo not drawn) [compound 347, 3-amino-1-(3-(tert-butoxy)phenyl)carbonyl-5-[(3-(aminocarbonyl)bicyclo[2.2.1]hept-5-en-2-yl)amino]-1H-1,2,4-triazole], the half-inhibitory concentration (IC50) (Table 6, Hela cells, Axl antibody cross-linking stimulation, phospho-Akt chemiluminescence) is > 20 µM. `Nc1nc(Nc2ccc(OCCN3CC[C@H](F)C3)cc2)n(C(=O)c2ccc3cc[nH]c3c2)n1` [compound 389, 3-amino-1-(1H-indol-6-yl)carbonyl-5-[4-[2-((S)-3-fluoropyrrolidin-1-yl)ethoxy]phenylamino]-1H-1,2,4-triazole]: under “Table 4, Hela cells, Axl antibody cross-linking stimulation, phospho-Akt chemiluminescence”, the IC50 was < 1 µM. With `Cc1cc(C(=O)n2nc(N)nc2Nc2ccc3c(c2)OCCO3)ccc1F` [compound 241, 3-amino-5-(1,4-benzodioxan-6-yl)amino-1-[(4-fluoro-3-methyl)phenyl]carbonyl-1H-1,2,4-triazole], under setting [2], the concentration for half-maximal inhibition (IC50) was > 20 µM. `CC(C)Oc1ccc(C(=O)n2nc(Nc3ccc(OCCn4ccnc4)cc3)nc2N)cc1` [compound 372, 5-amino-1-(4-(iso-propoxy)phenyl)carbonyl-3-[4-[2-(imidazol-1-yl)ethoxy]phenylamino]-1H-1,2,4-triazole]: the IC50 under setting [5] is < 1 µM.

Take `CC(C)Oc1ccc(C(=O)n2nc(Nc3ccc(OCCN4CCOCC4)cc3)nc2N)cc1` [compound 159]: the IC50 under setting [1] was < 1 µM. Consider `Nc1nc(Nc2ccc(OCCN3CC[C@H](F)C3)cc2)nn1C(=O)c1ccc2c(c1)OCCO2` [compound 386, 5-amino-1-(1,4-benzodioxan-6-yl)carbonyl-3-[4-[2-((S)-3-fluoropyrrolidin-1-yl)ethoxy]phenylamino]-1H-1,2,4-triazole], for which the 50% inhibitory concentration (IC50) under setting [3] is < 1 µM. As to `CC(C)(C)Oc1ccc(C(=O)n2nc(Nc3cccc(-c4cnco4)c3)nc2N)cc1` [compound 264, 5-amino-1-(4-(tert-butoxy)phenyl)carbonyl-3-[3-(1,3-oxazol-5-yl)phenylamino]-1H-1,2,4-triazole], the IC50 under setting [5] lay in the range of 1 to 10 µM.

Under setting [1], `Nc1nc(Nc2ccc3c(c2)OCCO3)nn1C(=O)c1ccc(OCCN2CCOCC2)cc1` [compound 149, 5-amino-3-(1,4-benzodioxan-6-yl)amino-1-[4-[2-(morpholin-4-yl)ethoxy]phenyl]carbonyl-1H-1,2,4-triazole] returned an IC50 of 1 to 10 µM. With `Cc1ccc(C(=O)n2nc(Nc3cccc(C)c3)nc2N)cc1` [compound 133, 5-amino-3-[3-(methyl)phenylamino]-1-(4-(methyl)phenyl)carbonyl-1H-1,2,4-triazole], the IC50 under setting [1] lay in the range of 1 to 10 µM. The same measure, in the same setting: the result for `Cc1ccc(C(=O)n2nc(Nc3ccc(O)cc3)nc2N)cc1` [(Ia-4), 5-amino-3-[4-(hydroxy)phenylamino]-1-(4-methylphenyl)carbonyl-1H-1,2,4-triazole] reads > 20 µM. Same read-out and setting: the result for `Nc1nc(Nc2ccc3c(c2)OCCO3)nn1C(=O)c1ccccc1Cl` [compound 94, 5-amino-1-(2-(chloro)phenyl)carbonyl-3-(1,4-benzodioxan-6-yl)amino-1H-1,2,4-triazole] reads > 20 µM. On to `CN(C)c1ccc(C(=O)n2nc(NC3CCN(S(C)(=O)=O)CC3)nc2N)cc1` [compound 395, 5-amino-1-(4-(dimethylamino)phenyl)carbonyl-3-(1-methylsulfonylpiperidin-4-yl)amino-1H-1,2,4-triazole], for which, under setting [4], the IC50 was > 20 µM. Regarding `CN(C)c1cccc(C(=O)n2nc(Nc3ccc(OCCN4CCCCC4)cc3)nc2N)c1` [compound #11, 5-Amino-1-(3-(dimethylamino)phenyl)carbonyl-3-[4-[2-(piperidin-1-yl)ethoxy]phenylamino]-1H-1,2,4-triazole], the IC50 under setting [5] is < 1 µM.

The compound `Cc1cc(C)cc(C(=O)n2nc(Nc3ccc4c(c3)OCCO4)nc2N)c1` [compound 239, 5-amino-3-(1,4-benzodioxan-6-yl)amino-1-(3,5-dimethylphenyl)carbonyl-1H-1,2,4-triazole] had an IC50 under setting [5] of 1 to 10 µM. In the case of `Cc1ccc(C(=O)n2nc(Nc3ccccc3F)nc2N)cc1` [compound 129, 5-amino-3-[2-(fluoro)phenylamino]-1-(4-(methyl)phenyl)carbonyl-1H-1,2,4-triazole], the concentration for half-maximal inhibition (IC50) under setting [1] was > 20 µM.
